According to US12065404B2, “C4-carboxylic acid-substituted tryptamine derivatives and methods of using” (priority 2022, dated 2024):
Values joined by “and” are separate entries in the source; they are usually repeats but may differ in a detail not shown here. Equal values may be shown once. “Also recorded” adds a separate entry of the source. Read-outs that look alike come from different tables or passages of the source. Marks after values point to notes of the source that are not given here.

Key:
5-HT1A receptor = target: T1, 5-HT1A receptor (Homo sapiens, UniProt P08908); assay: cAMP-Glo assay of 5-HT1A receptor modulation, +5-HT1A (CHO-K1/5-HT1A/Ga15) vs -5-HT1A (CHO-K1/Ga15) cells; type: cell-based; set-up: dose or concentration left out as unconfirmed; settings: +5-HT1A vs -5-HT1A cell cultures stimulated with forskolin, increasing ligand concentrations
T1 construct: host or cells: CHO-K1 (co-expressing Ga15)
T1 sequence (P08908 1-422): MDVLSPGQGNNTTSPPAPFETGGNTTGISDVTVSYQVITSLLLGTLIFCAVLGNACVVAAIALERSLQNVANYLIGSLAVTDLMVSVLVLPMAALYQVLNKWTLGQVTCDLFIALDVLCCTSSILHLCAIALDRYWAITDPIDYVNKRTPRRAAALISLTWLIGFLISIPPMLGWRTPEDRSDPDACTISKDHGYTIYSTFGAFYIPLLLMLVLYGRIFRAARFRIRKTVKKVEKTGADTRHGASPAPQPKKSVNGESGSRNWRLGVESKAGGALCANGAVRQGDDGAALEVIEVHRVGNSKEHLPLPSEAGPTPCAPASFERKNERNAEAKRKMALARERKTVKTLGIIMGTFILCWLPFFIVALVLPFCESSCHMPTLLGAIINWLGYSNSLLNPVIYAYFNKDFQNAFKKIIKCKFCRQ

5-HT2A receptor = 5-HT2A receptor (Homo sapiens, UniProt P28223); assay: [3H]ketanserin competition binding assay (SPA) at 5-HT2A; settings: 1 nM [3H]ketanserin, FIGS. 3E, 3F
Chain of 5-HT2A receptor (P28223 whole entry): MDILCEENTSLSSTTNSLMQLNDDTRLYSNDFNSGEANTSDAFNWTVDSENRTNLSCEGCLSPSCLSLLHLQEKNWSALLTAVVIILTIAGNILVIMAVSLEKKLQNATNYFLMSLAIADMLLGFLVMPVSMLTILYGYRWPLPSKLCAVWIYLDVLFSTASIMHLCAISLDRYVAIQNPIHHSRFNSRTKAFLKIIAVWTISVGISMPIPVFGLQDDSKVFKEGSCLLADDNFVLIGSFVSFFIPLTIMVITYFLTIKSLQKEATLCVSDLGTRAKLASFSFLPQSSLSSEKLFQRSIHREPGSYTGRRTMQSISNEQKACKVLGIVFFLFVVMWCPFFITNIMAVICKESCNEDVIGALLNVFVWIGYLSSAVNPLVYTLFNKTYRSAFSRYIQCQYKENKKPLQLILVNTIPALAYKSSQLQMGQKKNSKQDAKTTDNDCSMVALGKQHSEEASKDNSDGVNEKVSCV

GABAA = GABAA (Homo sapiens, UniProt P14867+P18507+P47870); type: cell-based; settings: ion channel
Chain of GABAA (P14867 28-456): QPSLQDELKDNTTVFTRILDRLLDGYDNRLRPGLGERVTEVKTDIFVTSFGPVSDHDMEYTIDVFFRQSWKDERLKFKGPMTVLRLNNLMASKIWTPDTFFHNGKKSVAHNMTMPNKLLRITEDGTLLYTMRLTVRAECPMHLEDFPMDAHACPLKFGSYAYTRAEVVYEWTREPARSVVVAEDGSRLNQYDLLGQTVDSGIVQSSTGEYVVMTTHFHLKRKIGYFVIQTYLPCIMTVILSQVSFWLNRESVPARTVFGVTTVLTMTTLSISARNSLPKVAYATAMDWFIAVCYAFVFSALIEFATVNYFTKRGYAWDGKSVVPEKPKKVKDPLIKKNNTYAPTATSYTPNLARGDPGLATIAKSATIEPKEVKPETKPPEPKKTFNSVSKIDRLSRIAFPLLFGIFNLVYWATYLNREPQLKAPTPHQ
Chain of GABAA (P47870 26-512): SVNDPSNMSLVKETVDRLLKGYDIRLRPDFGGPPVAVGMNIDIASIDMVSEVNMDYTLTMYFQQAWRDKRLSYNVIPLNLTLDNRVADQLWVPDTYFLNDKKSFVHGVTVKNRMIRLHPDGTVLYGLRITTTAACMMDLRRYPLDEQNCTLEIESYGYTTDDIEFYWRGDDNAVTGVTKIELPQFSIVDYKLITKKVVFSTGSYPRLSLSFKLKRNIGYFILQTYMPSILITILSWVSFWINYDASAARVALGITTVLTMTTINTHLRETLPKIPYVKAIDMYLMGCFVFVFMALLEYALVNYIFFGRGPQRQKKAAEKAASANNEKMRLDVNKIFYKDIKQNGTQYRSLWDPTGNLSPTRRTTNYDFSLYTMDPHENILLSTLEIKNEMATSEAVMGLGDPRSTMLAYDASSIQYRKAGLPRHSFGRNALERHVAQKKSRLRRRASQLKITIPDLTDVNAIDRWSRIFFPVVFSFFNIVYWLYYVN
Chain of GABAA (P18507 40-475): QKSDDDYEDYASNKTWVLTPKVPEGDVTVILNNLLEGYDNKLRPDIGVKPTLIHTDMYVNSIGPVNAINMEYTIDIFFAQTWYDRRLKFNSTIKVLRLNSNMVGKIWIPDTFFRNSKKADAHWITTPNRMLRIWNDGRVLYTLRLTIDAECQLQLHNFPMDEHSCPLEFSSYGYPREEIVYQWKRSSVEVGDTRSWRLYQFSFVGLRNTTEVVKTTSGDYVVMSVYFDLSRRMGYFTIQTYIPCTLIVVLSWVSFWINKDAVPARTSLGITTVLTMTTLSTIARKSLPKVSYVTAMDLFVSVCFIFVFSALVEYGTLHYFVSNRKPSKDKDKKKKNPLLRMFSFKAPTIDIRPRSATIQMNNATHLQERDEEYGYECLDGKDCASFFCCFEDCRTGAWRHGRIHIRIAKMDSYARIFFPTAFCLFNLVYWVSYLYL

[1] = LC-MS measurement of dosing solution concentrations (nominal vs measured); type: physicochemical
Protocol: (§1) Briefly, the procedure was as follows. […] 19, 2022.
Pharmacokinetic (PK) evaluations were performed in the same manner as described in Example 1, except compound C(IV) was used in place of compound C(V). […] Thus, only psilocin PK analysis was performed. […] Table 46 summarizes these “measured” concentrations along with corresponding “nominal” concentrations for each dosing solution. Results for psilocin PK following C(IV) administration are found in Tables 47A-47B (0.293 mg/kg IV dose), Tables 48A-48B (0.275 mg/kg oral dose), Tables 49A-49B (0.789 mg/kg oral dose), Tables 50A-50B (2.52 mg/kg oral dose), Table 51 (comparative summary for IV data), Table 52 (comparative summary for oral data), Table 53A (psilocin exposure) and FIGS. 10H (i) and 10H (ii).

[2] = Mouse pharmacokinetic (PK) study, parent compound and psilocin metabolite in plasma; type: in vivo, C57Bl/6 mice
Source text: as §1

[3] = target: T2, neuronal 5-HT2A receptor (5-HT2AR) (Mus musculus, UniProt P35363); assay: Drug-induced Head Twitch Response (HTR) in mice; type: in vivo, C57BL/6-Elite mice; settings: 1 mg/kg i.p., 15-to-30-minute window post-drug, relative to vehicle-treated control mice
T2 construct: HTR was measured in mice treated with a control and test compounds; tissue Charles River; host or cells: live C57BL/6-Elite mice (neuronal receptor)
T2 sequence (P35363 whole entry): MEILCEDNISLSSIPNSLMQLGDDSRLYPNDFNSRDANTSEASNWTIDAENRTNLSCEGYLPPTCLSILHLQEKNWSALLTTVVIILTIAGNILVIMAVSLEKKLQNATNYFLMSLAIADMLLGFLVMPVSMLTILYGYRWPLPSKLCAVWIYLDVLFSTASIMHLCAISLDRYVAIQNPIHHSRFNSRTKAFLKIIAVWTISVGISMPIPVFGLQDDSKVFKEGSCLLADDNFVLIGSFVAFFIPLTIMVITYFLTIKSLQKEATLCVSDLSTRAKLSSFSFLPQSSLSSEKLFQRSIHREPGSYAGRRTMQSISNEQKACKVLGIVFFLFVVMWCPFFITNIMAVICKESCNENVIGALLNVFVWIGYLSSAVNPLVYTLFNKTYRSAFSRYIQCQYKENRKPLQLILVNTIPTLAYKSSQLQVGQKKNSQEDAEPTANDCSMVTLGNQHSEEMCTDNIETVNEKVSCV

## CN(C)CCc1c[nH]c2cccc(O)c12 [psilocin, reference compound]
5-HT1A receptor
  5-HT1A receptor modulation (reduction of cAMP levels): reduction in cAMP levels
5-HT2A receptor
  Competition binding vs [3H]ketanserin at 5-HT2A (control outcome): binding

## CN(C)CCc1c[nH]c2cccc(OC(=O)CC3CC3)c12 [C(IV)]
5-HT1A receptor
  5-HT1A receptor modulation (reduction of cAMP levels): significant receptor modulation
GABAA; blocker (BL)
  IC50: > 100 µM
GABAA; opener (OP)
  EC50: > 100 µM
[1]; C(IV) nominal 0.1 mg/mL, not accurate, peak below LLOQ, for reference only
  Psilocin, measured, in C(IV) residual dosing solution: 0.00174^d mg/mL
[1]; C(IV) nominal 0.2 mg/mL
  Psilocin, measured, in C(IV) residual dosing solution: 0.00324 mg/mL
[1]; C(IV) nominal 0.3 mg/mL
  Psilocin, measured, in C(IV) residual dosing solution: 0.00474 mg/mL
[1]; C(IV) nominal 1 mg/mL
  Psilocin, measured, in C(IV) residual dosing solution: 0.0234 mg/mL
[1]; PK dosing solutions
  Stability in dosing solutions: compound instability in dosing solutions
[1]; nominal 0.1 mg/mL
  C(IV), measured, residual dosing solution concentration: 0.0275 mg/mL
[1]; nominal 0.2 mg/mL
  C(IV), measured, residual dosing solution concentration: 0.0586 mg/mL
[1]; nominal 0.3 mg/mL
  C(IV), measured, residual dosing solution concentration: 0.0789 mg/mL
[1]; nominal 1 mg/mL
  C(IV), measured, residual dosing solution concentration: 0.252 mg/mL
[2]; 0.275 mg/kg oral C(IV), 24 h, animals M64-M66
  Plasma concentration of psilocin: No Peak
[2]; 0.789 mg/kg oral C(IV), 24 h, animals M67-M69
  Plasma concentration of psilocin: No Peak
[2]; mouse, i.v. and oral doses
  Detectability of administered compound in plasma, any animals at any dose: not detectable in any animals at any dose
[3]
  Incidences of Head Twitch Response (HTR): Elevated incidences of HTR

## N[C@@H](Cc1c[nH]c2ccccc12)C(=O)O [tryptophan, reference compound]
5-HT1A receptor
  5-HT1A receptor modulation (reduction of cAMP levels): no reduction in cellular cAMP levels
5-HT2A receptor
  Competition binding vs [3H]ketanserin at 5-HT2A (control outcome): no binding

## COc1ccc(C(=O)Oc2cccc3[nH]cc(CCN(C)C)c23)cc1 [C(V)]
5-HT1A receptor
  5-HT1A receptor modulation (reduction of cAMP levels): mild receptor modulation at higher ligand concentrations
GABAA; blocker (BL) mode
  IC50: > 100 µM
GABAA; opener (OP) mode
  EC50: > 100 µM
[2]; mouse, 1 mg/kg i.v.
  Detectability of administered compound in plasma, i.v. administered animals: only detectable in i.v. administered animals
[2]; mouse, oral, any dose (1, 3, 10 mg/kg)
  Detectability of administered compound in plasma, orally administered animals: not detectable in orally administered animals at any dose
[2]; mouse, 1 mg/kg i.v., 5 min, individual animals, 1 mg/kg
  Plasma concentration of administered (parent) compound: 6.53 ng/mL and 53.8 ng/mL and 13.5 ng/mL
[2]; mouse, 1 mg/kg i.v., 5 min, mean ± SD
  Plasma concentration of administered (parent) compound: 24.6 ± 25.5 ng/mL
[2]; mouse, 1 mg/kg i.v., 0.25 h, individual animals, 1 mg/kg
  Plasma concentration of administered (parent) compound: BLQ (BLQ denotes below the lower limit of quantitation (0.5 ng/mL).)
[2]; mouse, 1 mg/kg i.v., 0.25 h, mean ± SD
  Plasma concentration of administered (parent) compound: 0.834 (n = 1) ng/mL
[2]; mouse, 1 mg/kg i.v., 0.5 h, individual animals, 1 mg/kg
  Plasma concentration of administered (parent) compound: BLQ (BLQ denotes below the lower limit of quantitation (0.5 ng/mL).); also recorded: No Peak
[2]; mouse, 1 mg/kg i.v., 1 h, individual animals
  Plasma concentration of administered (parent) compound: No Peak
[2]; mouse, 1 mg/kg i.v., 2 h, individual animals
  Plasma concentration of administered (parent) compound: No Peak
[2]; mouse, 1 mg/kg i.v., 4 h, individual animals
  Plasma concentration of administered (parent) compound: No Peak
[2]; mouse, 1 mg/kg i.v., 6 h, individual animals
  Plasma concentration of administered (parent) compound: No Peak
[2]; mouse, 1 mg/kg i.v., 8 h, individual animals
  Plasma concentration of administered (parent) compound: No Peak
[2]; mouse, 1 mg/kg i.v., individual animals, 1 mg/kg
  Cmax of administered (parent) compound: 6.53 ng/mL and 53.8 ng/mL and 13.5 ng/mL
[2]; mouse, 1 mg/kg i.v., mean ± SD
  Cmax of administered (parent) compound: 24.6 ± 25.5 ng/mL
[2]; mouse, prodrug 1 mg/kg i.v., 8 h, individual animals
  Plasma concentration of psilocin: BLQ (BLQ denotes below the lower limit of quantitation (0.2 ng/ml).)
[2]; mouse, prodrug 1 mg/kg oral, 8 h, individual animals
  Plasma concentration of psilocin: BLQ (BLQ denotes below the lower limit of quantitation (0.2 ng/ml).)
[2]; mouse, prodrug 1 mg/kg oral, 24 h, individual animals
  Plasma concentration of psilocin: No Peak; also recorded: BLQ (BLQ denotes below the lower limit of quantitation (0.2 ng/ml).)
[2]; mouse, prodrug 3 mg/kg oral, 24 h, individual animals
  Plasma concentration of psilocin: No Peak; also recorded: BLQ (BLQ denotes below the lower limit of quantitation (0.2 ng/ml).)
[2]; mouse, prodrug 10 mg/kg oral, 24 h, individual animals
  Plasma concentration of psilocin: BLQ (BLQ denotes below the lower limit of quantitation (0.2 ng/ml).); also recorded: No Peak
[2]; plasma, LC-MS bioanalysis of the mouse PK study
  Stability in plasma: unstable in plasma; also recorded: ^aA freshly spiked calibration curve was used for quantification C(V) is not stable in plasma; concentrations are not considered accurate; also recorded: ^aDue to C(V) instability in plasma, the PK parameter estimates are not considered accurate
[3]
  Incidences of Head Twitch Response (HTR): Elevated incidences of HTR
